In patent publication US7098013B2, “Polypeptide having α-isomaltosyl-transferase activity” (Kabushiki Kaisha Hayashibara Seibutsu Kagaku Kenkyujo, priority 2000, dated 2006):

Tests used:
[1] = tested on: α-isomaltosyl-transferring enzyme; assay: Action of the purified C11 enzyme on saccharide substrates (saccharide composition by HPLC); type: biochemical, Bacillus globisporus C11; details: for yield of cyclotetrasaccharide in dry basis from the substrate: summary of Table 3
Protocol: An aqueous solution containing 10 mM of glucose, 6-O-α-glucosylglucose (isomaltose), 6^2-O-α-glucosylmaltose (panose), 6^3-O-α-glucosylmaltotriose (isomaltosylmaltose), 6^4-O-α-glucosylmaltotetraose, or 6^5-O-α-glucosylmaltopentaose was prepared as substrate solution. To each of the above substrate solution was added two units/mM-substrate of the purified α-isomaltosyl-transferring enzyme specimen obtained in Experiment 1-2 and incubated at 30° C. and at pH 6.0 for 12 hours. After deionizing by conventional method, the resulting reaction solutions were measured for saccharide composition on HPLC using “MCI GEL CK04SS”, a column commercialized by Mitsubishi Chemical Industries, Ltd., Tokyo, Japan, at a column temperature of 80° C. and a flow rate of 0.4 ml/min of water, and using a detector “RI-8012”, a differential refractometer commercialized by Tosho Corporation, Tokyo, Japan.

[2] = tested on: α-isomaltosyl-transferring enzyme; assay: Action of the purified N75 enzyme on saccharide substrates (saccharide composition by HPLC); type: biochemical, Bacillus globisporus N75; details: for yield of cyclotetrasaccharide in dry basis from the substrate: summary of Table 6
Protocol: An aqueous solution containing 10 mM of glucose, 6-O-α-glucosylglucose (isomaltose), 6^2-O-α-glucosylmaltose (panose), 6^3-O-α-glucosylmaltotriose (isomaltosylmaltose), 6^4-O-αglucosylmaltotetraose, or 6^5-O-α-glucosylmaltopentaose was prepared as substrate solution. To each of the above substrate solutions was added two units/mM-substrate of the purified α-isomaltosyl-transferring enzyme specimen obtained in Experiment 3-2 and incubated at 30° C. and at pH 6.0 for 12 hours. After deionizing by conventional method, the resulting reaction solutions were measured for saccharide composition on HPLC, disclosed in Experiment 2-1.

[3] = tested on: Bacillus globisporus C11; assay: Utilization of carbon source and acid formation, strain C11; type: cell-based; design: key: The symbol “+” means yes or positive; details: carbon source
Protocol: (§1) Physiological Properties> • (1) VP-test: Negative • (2) Indole formation: Negative • (3) Gas formation from nitric acid: Positive • (4) Hydrolysis of starch: Positive • (5) Formation of pigment: Forming no soluble pigment • (6) Urease: Positive • (7) Oxidase: Positive • (8) Catalase: Positive • (9) Growth conditions: Growing at a pH of 5.5–9.0 and a temperature of 10–35° C. • (10) Oxygen requirement: Aerobic • (11) Utilization of carbon source and acid formation

[4] = tested on: Bacillus globisporus N75; assay: Utilization of carbon source and acid formation, strain N75; type: cell-based; design: key: The symbol “+” means yes or positive; details: carbon source
Protocol: as §1

[5] = Thermal stability of the polypeptide; type: physicochemical; details: 20 mM acetate buffer (pH 6.0), 60 min
Protocol: (§2) A purified specimen of polypeptide having α-isomaltosyl-transferring activity, obtained by the method in Experiment 3-2, was incubated in 20 mM acetate buffer (pH6.0) at various temperatures for 60 min according to the assay method of α-isomaltosyl-transferring enzyme disclosed in Experiment 1-1.

[6] = Optimum temperature of the enzyme activity; type: biochemical; details: incubated for 30 min, pH 6.0
Protocol: The activity of α-isomaltosyl-transferring enzyme was measured by the following assay: A substrate solution was prepared by dissolving panose in 100 mM acetate buffer (pH 6.0) to give a concentration of 2% (w/v). A reaction mixture was prepared by mixing 0.5 ml of the substrate solution and 0.5 ml of an enzyme solution, and incubated at 35° C. for 30 min. After stopping the reaction by boiling for 10 min, the amount of glucose formed in the reaction mixture was determined by the glucose oxidase-peroxidase method. One unit of α-isomaltosyl-transferring activity was defined as the amount of the enzyme that forms one μmole of glucose per minute under the above conditions.
as §2, with “acted on the substrate” for “incubated”, “30 min,” for “60 min”

[7] = C11 enzyme 2 units/mM-substrate, 10 mM substrate, 30° C., pH 6.0, 12 hours
[8] = N75 enzyme 2 units/mM-substrate, 10 mM substrate, 30° C., pH 6.0, 12 hours

O=C[C@H](O)[C@@H](O)[C@H](O)[C@H](O)CO[C@H]1O[C@H](CO)[C@@H](O)[C@H](O)[C@H]1O [6-O-α-Glucosylglucose, 6-O-α-glucosylglucose]
product formation from the substrate ([1]; C11 enzyme): No product was detected | Content of the substrate itself (remaining) in the reaction mixture [1, 7]: 100% | product formation from the substrate ([2]; N75 enzyme): No product was detected | Content of the substrate itself (remaining) in the reaction mixture [2, 8]: 100%

OC[C@H]1O[C@H](OC[C@H]2O[C@H](O[C@H]3[C@H](O)[C@@H](O)C(O)O[C@@H]3CO)[C@H](O)[C@@H](O)[C@@H]2O)[C@H](O)[C@@H](O)[C@@H]1O (stereo partly drawn) [6^2-O-α-Glucosylmaltose, 6^2-O-α-glucosylmaltose]
Content of Cyclotetrasaccharide in the reaction mixture [1, 7]: 43.5% | Content of Glucose in the reaction mixture [1, 7]: 32.2% | Content of Isomaltose in the reaction mixture [1, 7]: 2.1% | Content of Isomaltosylpanose in the reaction mixture [1, 7]: 4.8% | Content of Isomaltosypanoside in the reaction mixture [1, 7]: 1.8% | Content of others in the reaction mixture [1, 7]: 11.0% | Content of the substrate itself (remaining) in the reaction mixture [1, 7]: 4.6% | yield of cyclotetrasaccharide in dry basis from the substrate ([1]; C11 enzyme): 43.5% | Content of Cyclotetrasaccharide in the reaction mixture [2, 8]: 43.2% | Content of Glucose in the reaction mixture [2, 8]: 31.8% | Content of Isomaltose in the reaction mixture [2, 8]: 2.0% | Content of Isomaltosylpanose in the reaction mixture [2, 8]: 6.5% | Content of Isomaltosypanoside in the reaction mixture [2, 8]: 2.4% | Content of others in the reaction mixture [2, 8]: 9.7% | Content of the substrate itself (remaining) in the reaction mixture [2, 8]: 4.4% | yield of cyclotetrasaccharide in dry basis from the substrate ([2]; N75 enzyme): 43.2%

OC[C@H]1O[C@H](OC[C@H]2O[C@H](O[C@H]3[C@H](O)[C@@H](O)[C@@H](O[C@H]4[C@H](O)[C@@H](O)C(O)O[C@@H]4CO)O[C@@H]3CO)[C@H](O)[C@@H](O)[C@@H]2O)[C@H](O)[C@@H](O)[C@@H]1O (stereo partly drawn) [6^3-O-α-Glucosylmaltotriose, 6^3-O-α-glucosylmaltotriose]
Content of Cyclotetrasaccharide in the reaction mixture [1, 7]: 30.8% | Content of Isomaltose in the reaction mixture [1, 7]: 2.0% | Content of Maltose in the reaction mixture [1, 7]: 50.6% | Content of others in the reaction mixture [1, 7]: 12.4% | Content of the substrate itself (remaining) in the reaction mixture [1, 7]: 4.2% | yield of cyclotetrasaccharide in dry basis from the substrate ([1]; C11 enzyme): 30.8% | Content of Cyclotetrasaccharide in the reaction mixture [2, 8]: 30.9% | Content of Isomaltose in the reaction mixture [2, 8]: 1.9% | Content of Maltose in the reaction mixture [2, 8]: 50.3% | Content of others in the reaction mixture [2, 8]: 12.4% | Content of the substrate itself (remaining) in the reaction mixture [2, 8]: 4.5% | yield of cyclotetrasaccharide in dry basis from the substrate ([2]; N75 enzyme): 30.9%

OC[C@H]1O[C@H](OC[C@H]2O[C@H](O[C@H]3[C@H](O)[C@@H](O)[C@@H](O[C@H]4[C@H](O)[C@@H](O)[C@@H](O[C@H]5[C@H](O)[C@@H](O)C(O)O[C@@H]5CO)O[C@@H]4CO)O[C@@H]3CO)[C@H](O)[C@@H](O)[C@@H]2O)[C@H](O)[C@@H](O)[C@@H]1O (stereo partly drawn) [6^4-O-α-Glucosylmaltotetraose, 6^4-O-α-glucosylmaltotetraose]
Content of Cyclotetrasaccharide in the reaction mixture [1, 7]: 25.6% | Content of Isomaltose in the reaction mixture [1, 7]: 1.9% | Content of Maltotriose in the reaction mixture [1, 7]: 60.7% | Content of others in the reaction mixture [1, 7]: 8.4% | Content of the substrate itself (remaining) in the reaction mixture [1, 7]: 3.4% | yield of cyclotetrasaccharide in dry basis from the substrate ([1]; C11 enzyme): 25.6% | Content of Cyclotetrasaccharide in the reaction mixture [2, 8]: 25.8% | Content of Isomaltose in the reaction mixture [2, 8]: 1.5% | Content of Maltotriose in the reaction mixture [2, 8]: 60.9% | Content of others in the reaction mixture [2, 8]: 8.6% | Content of the substrate itself (remaining) in the reaction mixture [2, 8]: 3.2% | yield of cyclotetrasaccharide in dry basis from the substrate ([2]; N75 enzyme): 25.8%

OC[C@H]1O[C@H](OC[C@H]2O[C@H](O[C@H]3[C@H](O)[C@@H](O)[C@@H](O[C@H]4[C@H](O)[C@@H](O)[C@@H](O[C@H]5[C@H](O)[C@@H](O)[C@@H](O[C@H]6[C@H](O)[C@@H](O)C(O)O[C@@H]6CO)O[C@@H]5CO)O[C@@H]4CO)O[C@@H]3CO)[C@H](O)[C@@H](O)[C@@H]2O)[C@H](O)[C@@H](O)[C@@H]1O (stereo partly drawn) [6^5-O-α-Glucosylmaltopentaose, 6^5-O-α-glucosylmaltopentaose]
Content of Cyclotetrasaccharide in the reaction mixture [1, 7]: 18.2% | Content of Isomaltose in the reaction mixture [1, 7]: 1.6% | Content of Maltotetraose in the reaction mixture [1, 7]: 66.5% | Content of others in the reaction mixture [1, 7]: 9.4% | Content of the substrate itself (remaining) in the reaction mixture [1, 7]: 4.3% | yield of cyclotetrasaccharide in dry basis from the substrate ([1]; C11 enzyme): 18.2% | Content of Cyclotetrasaccharide in the reaction mixture [2, 8]: 18.7% | Content of Isomaltose in the reaction mixture [2, 8]: 1.4% | Content of Maltotetraose in the reaction mixture [2, 8]: 66.6% | Content of others in the reaction mixture [2, 8]: 9.1% | Content of the substrate itself (remaining) in the reaction mixture [2, 8]: 4.2% | yield of cyclotetrasaccharide in dry basis from the substrate ([2]; N75 enzyme): 18.7%

OCC(O)CO [Glycerol]
Acid formation [3]: + | Utilization [3]: + | Acid formation [4]: + | Utilization [4]: +

OC[C@H]1O[C@@H](O[C@H]2[C@H](O)[C@@H](O)C(O)O[C@@H]2CO)[C@H](O)[C@@H](O)[C@H]1O (stereo partly shown) [Lactose]
Acid formation [3]: + | Utilization [3]: + | Acid formation [4]: + | Utilization [4]: +

OC[C@H]1O[C@@](CO)(O[C@H]2O[C@H](CO)[C@@H](O)[C@H](O)[C@H]2O)[C@@H](O)[C@@H]1O [Sucrose]
Acid formation [3]: + | Utilization [3]: + | Acid formation [4]: + | Utilization [4]: +

B1: polypeptide having α-isomaltosyl-transferring enzyme activity from Bacillus globisporus C11: purified α-isomaltosyl-transferring enzyme from Bacillus globisporus C11 (FERM BP-7144), contains the … (protein, listed as Bacillus globisporus)
chain: IDGVYHAPYGIDDLYEIQATERSPRDPVAGDTVYIKITTWPIESGQTAWVTWTKNGVNQAAVGAAFKYNSGNNTYWEANLGTFAKGDVISYTVHGNKDGANEKVIGPFTFTVTGWESVSSISSITDNTNRVVLNAVPNTGTLKPKINLSFTADDVLRVQVSPTGTGTLSSGLSNYTVSDTASTTWLTTSKLKVKVDKNPFKLSVYKPDGTTLIARQYDSTTNRNIAWLTNGSTIIDKVEDHFYSPASEEFFGFGEHYNNFRKRGNDVDTYVFNQYKNQNDRTYMAIPFMLNSSGYGIFVNSTYYSKFRLATERTDMFSFTADTGGSAASMLDYYFIYGNDLKNVVSNYANITGKPTALPKWAFGLWMSANEWDRQTKVNTAINNANSNNIPATAVVLEQWSDENTFYIFNDATYTPKTGSAAHAYTDFTFPTSGRWTDPKAMADNVHNNGMKLVLWQVPIQKWTSTPYTQKDNDEAYMTAQNYAVGNGSGGQYRIPSGQWFENSLLLDFTNTAAKNWWMSKRAYLFDGVGIDGFKTDGGEMVWGRSNTFSNGKKGNEMRNQYPNEYVKAYNEYARSKKADAVSFSRSGTQGAQANQIFWSGDQESTFGAFQQAVNAGLTASMSGVPYWSWDMAGFTGTYPTAELYKRATEMAAFAPVMQFHSESNGSSGINEERSPWNAQARTGDNTIISHFAKYTNTRMNLLPYIYSEAKMASDTGVPMMRAMALEYPKDTNTYGLTQQYMFGGNLLIAPVMNQGETNKSIYLPQGDWIDFWFGAQRPGGRTISYTAGIDDLPVFVKFGSILPMNLNAQYQVGGTIGNSLTSYTNLAFRIYPLGTTTYDWNDDIGGSVKTITSTEQYGLNKETVTVPAINSTKTLQVFTTKPSSVTVGGSVMTEYSTLTALTGASTGWYYDTVQKFTYVKLGSSASAQSVVLNGVNKVEYEAEFGVQSGVSTNTNHAGYTGTGFVDGFETLGDNVAFDVSVKAAGTYTMKVRYSSGAGNGSRAIYVNNTKVTDLALPQTTSWDTWGTATFSVSLSTGLNTVKVSYDGTSSLGINFDNIAIVEQ
thermal stability [5]: up to 40 °C | optimum temperature [6]: about 50 °C
